Test results: patent publication US10767186B2, “Organic compounds” (Novartis AG, priority 2007, dated 2020)

How the values were obtained:
[1] = molecular target: FRα (FR alpha) and FRβ (FR beta); settings: cited from earlier work; for Kd: FRα and FRβ
[2] = tested on: CHO-K1 cell line; test: Folic acid starvation experiment, cell survival; type: cell-based, Chinese hamster
Experimental: Cells are cultivated in such medium and cell viability is analyzed to quantify the percentage of surviving cells.

[3] = tested on: RFC-deficient C15 cells; test: Antibody production of test vector clones at low folic acid (ELISA); type: cell-based, Chinese hamster
Experimental: The cells are lacking RFC transporter activity, as disclosed elsewhere (Assaraf, Y. G. and Schimke, R. T. (1987) Proc. Natl. Acad. Sci. USA 84, 7154-7158; Rothem, L., et al., Mol. Pharmacol. 68: 616-624).
RFC-deficient C15 cells are transfected with the test vector by electroporation. […] Cells are diluted to a final density of 5 cells/ml and seeded at 100 μl/well in 96-well plates (i.e. 0.5 cells/well). […] The co-selection utilizing the folate system of the present invention together with an additional selection system (i.e. neo/G418) is applied to provide optimal performance of the selection process. […] This is corroborated by further analysis of antibody expression in the various clones.
The analysis of antibody production is performed in principle as outlined in Example 1.4 above. The concentration of the secreted antibody is monitored using an ELISA assay as follows: Maxisorp microplates are coated with an anti-human IgG. Following blocking with a buffer containing bovine serum albumin (BSA) and several washes, multiple dilutions of the secreted antibody samples are added. Then, a peroxidase-conjugated second antibody consisting of goat anti-human IgG-peroxidase is added. Finally, a colorimetric peroxidase substrate is added following which the resultant dye concentration is determined in each well spectrophotometrically and then compared to standard concentrations of known IgG concentrations.

[4] = molecular target: T1, reduced folate carrier (RFC) (Homo sapiens, UniProt P41440); settings: cited from earlier work
T1 sequence (P41440 1-591): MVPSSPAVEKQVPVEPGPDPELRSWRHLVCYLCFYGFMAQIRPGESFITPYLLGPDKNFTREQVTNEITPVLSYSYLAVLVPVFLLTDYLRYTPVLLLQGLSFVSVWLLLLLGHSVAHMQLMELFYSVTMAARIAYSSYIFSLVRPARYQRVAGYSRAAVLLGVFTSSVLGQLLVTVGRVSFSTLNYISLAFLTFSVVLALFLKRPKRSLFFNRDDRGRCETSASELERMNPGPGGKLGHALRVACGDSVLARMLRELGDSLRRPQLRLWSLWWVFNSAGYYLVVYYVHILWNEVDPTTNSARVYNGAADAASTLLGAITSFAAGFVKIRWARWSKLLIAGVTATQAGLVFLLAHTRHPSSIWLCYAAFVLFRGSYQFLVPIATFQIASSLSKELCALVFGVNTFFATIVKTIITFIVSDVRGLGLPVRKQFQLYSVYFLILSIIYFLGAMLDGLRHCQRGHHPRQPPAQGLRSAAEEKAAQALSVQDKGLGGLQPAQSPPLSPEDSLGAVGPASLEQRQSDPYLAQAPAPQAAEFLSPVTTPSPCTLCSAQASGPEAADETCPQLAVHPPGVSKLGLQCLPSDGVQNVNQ

C#CCN(c1ccc(C(=O)N[C@@H](CCC(=O)N[C@H](CCC(=O)O)C(=O)O)C(=O)O)cc1)[C@H]1CCc2cc3nc(CO)[nH]c(=O)c3cc21 [BGC945]
Kd [1]: 1 nM

Nc1nc2c(c(=O)[nH]1)CC(CCc1ccc(C(=O)N[C@@H](CCC(=O)O)C(=O)O)cc1)CN2 (some centres unmarked) [DDATHF, 5,10-dideazatetrahydrofolic acid]
Ki ([1]; using [3H]folic acid as a substrate): 0.4 to 1.3 nM

CN(Cc1cnc2nc(N)nc(N)c2n1)c1ccc(C(=O)N[C@@H](CCC(=O)O)C(=O)O)cc1 [MTX, 4-amino-10-methylfolic acid]
Kd [1]: > 100 nM

Nc1nc2ncc(CNc3ccc(C(=O)N[C@@H](CCC(=O)O)C(=O)O)cc3)nc2c(=O)[nH]1 [folic acid]
Precentage of Survival ([2]; FA concentration 0.1 nM): 2.08 | Precentage of Survival ([2]; FA concentration 1 nM): 2.45 | Precentage of Survival ([2]; FA concentration 3 nM): 2 | Precentage of Survival ([2]; FA concentration 10 nM): 2.7 | Precentage of Survival ([2]; FA concentration 30 nM): 6.8 | Precentage of Survival ([2]; FA concentration 100 nM): 55.5 | Precentage of Survival ([2]; FA concentration 300 nM): 88.6 | Precentage of Survival ([2]; FA concentration 1000 nM): 100.8 | Precentage of Survival ([2]; FA concentration 2300 nM): 100 | CmAb: concentration of the secreted antibody in the medium ([3]; folic acid 60 pM in the medium): 216 ± 30 µg/L | CmAb: concentration of the secreted antibody in the medium ([3]; folic acid 600 pM in the medium): 138 ± 15 µg/L | CmAb: concentration of the secreted antibody in the medium ([3]; folic acid 1200 pM in the medium): 19 ± 8 µg/L | Kt (transport affinity) [4]: 200 to 400 µM

Nc1nc2c(c(=O)[nH]1)N(C=O)C(CNc1ccc(C(=O)N[C@@H](CCC(=O)O)C(=O)O)cc1)CN2 (some centres unmarked) [leucovorin, 5-formyl-THF]
Kt (transport affinity) [4]: 1 µM
